In the assay the target is T1, FGR (Homo sapiens, UniProt P09769).
T1 construct: purchased Thermo Fisher Scientific (Life Technologies) SelectScreen
As to the kind of experiment: SelectScreen Z'LYTE. Format: biochemical. The method, boiled down: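 Percent values come from Thermo SelectScreen profiling of NU5455, combining activity and binding assays. CSF1R was run in Z'LYTE format at Km app ATP, and CAMK1 in Adapta format with ATP listed at 10.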

Molecules are shown by their SMILES.

T1 sequence (P09769 whole entry): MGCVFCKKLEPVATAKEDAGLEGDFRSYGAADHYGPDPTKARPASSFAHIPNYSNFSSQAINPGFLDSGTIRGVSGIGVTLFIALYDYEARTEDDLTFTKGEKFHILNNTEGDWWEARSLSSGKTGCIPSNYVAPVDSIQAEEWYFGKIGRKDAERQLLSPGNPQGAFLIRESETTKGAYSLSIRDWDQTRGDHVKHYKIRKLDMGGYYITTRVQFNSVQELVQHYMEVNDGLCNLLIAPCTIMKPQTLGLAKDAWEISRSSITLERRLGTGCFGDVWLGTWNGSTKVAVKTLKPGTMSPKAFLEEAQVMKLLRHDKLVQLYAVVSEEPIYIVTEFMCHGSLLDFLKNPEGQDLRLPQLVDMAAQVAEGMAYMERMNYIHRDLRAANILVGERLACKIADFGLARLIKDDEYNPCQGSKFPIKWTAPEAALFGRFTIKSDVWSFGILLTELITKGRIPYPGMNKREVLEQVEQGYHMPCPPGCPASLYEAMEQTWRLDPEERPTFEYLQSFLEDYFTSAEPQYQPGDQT

A word on the inhibition: it is the relative decrease from the control value, in per cent. High values mean a strong effect, low ones a weak effect. Turning to `CN(C(=O)CN1CCOCC1)c1ccc2sc3c(-c4cccc5c(=O)cc(N6CC7CCC(C6)O7)oc45)cccc3c2c1` [NU5455], the inhibition at 1 µM was found to be 12.1%.

The values are drawn from publication PMC6934184, “Selective DNA-PKcs inhibition extends the therapeutic index of localized radiotherapy and chemotherapy” (The Journal of Clinical Investigation, 2019).
